Entries after “also recorded” stand apart in the source; their conditions may differ.
B1: PIGF: VEGF-related factor, a specific ligand for the Flt-1 VEGF receptor; recombinant (protein)
chain: AVPPQQWALSAGNGSSEVEVVPFQEVWGRSYCRALERLVDVVSEYPSEVEHMFSPSCVSLLRCTGCCGDENLHCVPVETANVTMQLLKIRSGDRPSYVELTFSQHVRCECRPLREKMKPERCGDAVPRR

What was measured:
Assay type in all cases: cell-based, human
[1] = system: PGI2 synthesis in HUVEC; assay: PGI2 assay (radioimmunoassay of 6-keto-PGF1a) in HUVEC; details: for mean fold increase in 6-keto PGF1a above control unstimulated level: 60 min, 25 ng/ml VEGF, 60 ng/ml PIGF, 1 U/ml thrombin
Protocol: (§1) Cell Culture: HUVECs were obtained either from Clonetics and cultured in the manufacturer's own medium supplemented with 2% FBS, or were grown from fresh umbilical cords by collagenase digestion and cultured on 1% gelatin-coated plates in medium 199 supplemented with 20% FCS and endothelial cell growth supplement (Wheeler-Jones et al, Biochem. J. (1996) 315:407-416). For experimental purposes, primary cultures of HUVEC were dispersed by treatment with 0.05% trypsin/0.02% EDTA for 5 min at 37° C. and then replated in either 90 mm, 60 mm or 35 mm plastic dishes, or onto 24-well plates. Cultures were maintained in a humidified atmosphere containing 5% CO2 and […] at 37° C. and used after 6-8 days or when the cells had formed a confluent monolayer. […] The PGI2 content of cell supernatants was quantified by radioimmunoassay of 6-keto-PGF1a, the stable breakdown product of PGI2 as previously described (Wheeler-Jones et al, supra). Arachidonic Acid Release: Arachidonic acid release was determined essentially as described (Domin and Rozengurt, J. Biol. Chem. (1993) 268:8927-8934.). Confluent HUVEC cultures were incubated for 24 h with [5,6,8,9,11,12,14,15-^3H]arachidonic acid (1 mCi/ml, 211 Ci/mmol). […] After treatment, the medium was removed, centrifuged in a microcentrifuge at 16,000×g for 5 min, and the radioactivity in the supernatant was determined by counting in a scintillation counter. Western Blotting Procedures: Treatment of quiescent cultures of cells with factors, and cell lysis were performed as described above and in the Results and Figure Legends. After SDS-PAGE, proteins were transferred to Immobilon membranes (Millipore Inc.). For MAP kinase assays, membranes were blocked using 5% non-fat dried milk in PBS, pH 7.2, and incubated for 3-5 h in PBS/0.05% Tween-20 containing primary antibody (1 mg/ml) as indicated. For immunoblots with antibody to cPLA2, membranes were blocked for 3 h in TBST50 mM Tris/HCl, 150 mM NaCl, 0.02% (v/v) Tween 20 pH 7.4 (TBST) containing 0.2% (w/v) 1-block (Tropix), then incubated with primary antiserum in TBST. Membranes were then washed six times (10 min each wash) in TBST and incubated for 1 hour in TBST containing HRP-conjugated secondary antibody. Immunoreactive bands were visualized by chemiluminescence using HRP-conjugated anti-mouse or anti-rabbit IgG and ECL™ reagent according to the manufacturers instructions. MAP Kinase Assay: Cells were treated with factors as indicated, washed rapidly twice with ice-cold PBS and immediately extracted by the addition of […] boiling 2×SDS-PAGE sample buffer. Cell extracts were collected by scraping, heated to 95° C. for 10 min and run on 12.5% acrylamide SDS-PAGE gels. Following transfer to Immobilon membranes, proteins were immunoblotted with an antibody which specifically recognizes p42 and p44 MAP kinases (Erk-1 and Erk-2) activated by phosphorylation at Tyr204 (Payne e al, EMBO J. (1991) 10:885-892.). cPLA2 Mobility Shift Assay: Confluent quiescent HUVECs in 60 mm dishes were washed twice in serum-free medium 199 (pH 7.4) and subsequently exposed, for the times indicated, to medium containing factors as detailed in the Figure legends. Cell lysates were prepared as previously described (Wheeler-Jones et al, supra). Proteins were separated by SDS-PAGE (10% acrylamide) and after transfer to membranes were immunoblotted with polyclonal anti-serum to cPLA2 (BorschHaubold et al, J. Biol. Chem. (1995) 270: 25885-25892; and Kramer et al, J. Biol. Chem. (1996) 271:27723-27729). Assay of vWF Secretion: vWF secretion was measured by ELISA (Wheeler-Jones et al, supra) in samples of medium obtained from confluent cultures of HUVECs which had been treated with factors, as indicated. Plates were coated with the anti-vWF mAb CLBRAg35, and the lower detection limit of the assay was approximately 1.0 mU/ml. Materials: Recombinant VEGF was obtained either from UBI or from R & D Systems. […]

[2] = system: vWF secretion by HUVECs; assay: vWF secretion by ELISA in HUVEC; design: effect of PD98059 on VEGF-induced vWF secretion: dose or concentration left out as unconfirmed
Protocol: as §1

[3] = system: p42/p44 MAP kinases; assay: MAP kinase assay (phospho-p42/p44 immunoblot) in HUVEC; design: inhibition of VEGF-stimulated MAP kinase activity: dose or concentration left out as unconfirmed
Protocol: as §1

[4] = system: cPLA2; assay: cPLA2 mobility shift assay in HUVEC; design: effect of PD98059 on VEGF-stimulated increase in slow-migrating cPLA2: dose or concentration left out as unconfirmed
Protocol: as §1

[5] = system: arachidonic acid release in HUVEC; assay: Arachidonic acid release from prelabelled HUVEC
Protocol: as §1

[6] = system: HUVECs; assay: Migration of HUVECs in chemotaxis chambers; details: PIGF 5-60 ng/ml

Row | Molecule | concentration of maximum inhibitory effect on stimulated PGI2 production [1] [µM] | effect of PD98059 on VEGF-induced PGI2 production ([1]; 30 mM PD98059 30 min pretreatment, 25 ng/ml VEGF 60 min) | effect of PD98059 on thrombin-induced PGI2 production ([1]; 30 mM PD98059 30 min pretreatment, 1 U/ml thrombin 60 min) | inhibitor concentration at which PGI2 production fell below control values ([1]; VEGF-treated cells) | PGI2 production in control, unstimulated cells ([1]; basal) | effect of PD98059 on VEGF-induced vWF secretion [2] | effect of PD98059 on basal or thrombin-stimulated vWF secretion [2] | concentration reducing MAP kinase activity to control, unstimulated level [3] [mM] | inhibition of VEGF-stimulated MAP kinase activity [3] | effect of PD98059 on VEGF stimulation of p42/p44 MAP kinases ([3]; 30 min pretreatment) | effect of PD98059 on VEGF-stimulated increase in slow-migrating cPLA2 [4] | mean fold increase in 6-keto PGF1a above control unstimulated level [1] [fold] | mean increase in release of labelled arachidonic acid above basal unstimulated level ([5]; four independent experiments) [fold] | cPLA2 mobility shift (in words) [4] | chemotaxis of HUVECs [6] | arachidonic acid release (in words) ([5]; prelabelled HUVECs) | vWF secretion (in words) [2] | MAP kinase activity (in words) ([3]; PIGF 1-60 ng/ml)
1 | COc1cccc(-c2cc(=O)c3ccccc3o2)c1N [PD98059, reference compound] | 10 | completely inhibited; also recorded: complete inhibition | completely inhibited | greater than 10 mM | abolished | neither prevented nor significantly reduced; also recorded: no effect | no effect | 10 to 20 | greater than 50% | completely inhibited; also recorded: complete inhibition | completely blocked; also recorded: complete inhibition |  |  |  |  |  |  | 
2 | thrombin [reference compound] |  |  |  |  |  |  |  |  |  |  |  | 4.4 | 3.4 | striking shift |  |  |  | 
3 | B1 |  |  |  |  |  |  |  |  |  |  |  | 1.3 |  | no detectable shift | no detectable increase | no detectable significant increase | no detectable stimulation | little, if any, detectable increase; also recorded: little effect

From patent US7320679B2, “Therapeutic use of growth factor, and delivery device, especially for the treatment of intimal hyperplasia” (Ark Therapeutics, Ltd., priority 1996, dated 2008)
